According to PubChem BioAssay (NCI):
Several values for one entry are separate records, joined by “and”; a condition that tells them apart may be missing. Equal entries are not always repeated.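 Dose response: 5 concentrations. Exposure: 48 h. Format: 96-well plates. Endpoint: linear interpolation; highest concentration if not reached. The concentration for 50% growth inhibition is given as GI50. TGI denotes the concentration required for complete inhibition of growth.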

Key:
Assay in all cases: NCI-60 cell line screen, 48 h
BT-549 breast = test system: BT-549 breast
SK-MEL-28 melanoma = test system: SK-MEL-28 melanoma
SR leukemia = test system: SR leukemia
786-0 renal = test system: 786-0 renal
RXF 393 renal = test system: RXF 393 renal
SF-539 CNS = test system: SF-539 CNS
NCI-H23 lung = test system: NCI-H23 lung
OVCAR-4 ovarian = test system: OVCAR-4 ovarian
MDA-MB-231 breast = test system: MDA-MB-231 breast
NCI-H522 lung = test system: NCI-H522 lung

SMILES	TGI (BT-549 breast) [µM]	TGI (SK-MEL-28 melanoma) [µM]	TGI (SR leukemia) [µM]	TGI (786-0 renal) [µM]	TGI (RXF 393 renal) [µM]	TGI (SF-539 CNS) [µM]	TGI (NCI-H23 lung) [µM]	TGI (OVCAR-4 ovarian) [µM]	TGI (MDA-MB-231 breast) [µM]	TGI (NCI-H522 lung) [µM]	GI50 (BT-549 breast) [µM]	GI50 (SK-MEL-28 melanoma) [µM]	GI50 (SR leukemia) [µM]	GI50 (786-0 renal)	GI50 (RXF 393 renal) [µM]	GI50 (SF-539 CNS) [µM]	GI50 (NCI-H23 lung) [µM]	GI50 (OVCAR-4 ovarian) [µM]	GI50 (MDA-MB-231 breast)	GI50 (NCI-H522 lung) [µM]
COc1ccc2[nH]c3c4c(ccc3c2c1)C(=O)C=CC4=O	84.9	20.2	2.79	24.2	6.88	32.2	30.2	28.6	35.4	3.66										
O=C(Nc1ccc(Br)cc1)c1ccc(Cl)c(Cl)c1	> 29.8	> 100	> 100	> 100	> 100	> 100	7.32	> 100	> 100	16.2	2.74	3.93	4.35	3.92 µM	> 28	4.01	2.32	3.78	3.24 µM	2.75
COc1ccc(Nc2c3ccccc3nc3occ(Cl)c23)cc1	26.2	21.1	8.36	21		1.39	28.8	> 86.6	0.0648	6.92	2.05	0.0265	< 0.01	0.0335 µM		< 0.0167	0.0549	0.73	< 0.01 µM	< 0.0119
Cc1cn2c(/C=C3\C(=O)N(C)c4ccc(O)cc43)c(C)nc2s1	> 100	> 100	9.91	> 100	> 100	28	> 100	> 100	> 100	13.7	7.57	5.15	1.98	6.41 µM	36	5.58	11.9	20.5	7.89 µM	3.02
O=C(Nc1ccc(CO)cc1)c1coc2ccccc2c1=O	> 100	> 100	> 100	> 100	> 100	> 100	> 100	> 100	> 100	> 100	90.7	> 100	> 100	> 100 µM	> 100	> 100	> 100	> 100	> 100 µM	> 100
NC(N)=NCCCCCNc1noc(Cc2c[nH]c3cc(Br)ccc23)n1	14.9	36.7	40	86.3	> 100	29.5	28.7	91.8	30.2	46.5	3.35	16.3	13.8	23 µM	20.2	12.5	8.2	12.2	8.05 µM	13.6
Cc1cc2c(cc1Cl)SC(=Nc1ccc(Cl)cc1)N(S(=O)(=O)c1ccccc1)S2(=O)=O	24.5	63.5	> 100	18.1	48.2	3.53	5.96	64.3	16	52.8	11.1	12.2	0.342	4.54 µM	17.2	1.03	1.55	11	2.79 µM	12.4
COc1ccc2ncn(-c3cc(O[C@H](C)c4ccccc4Cl)c(C(N)=O)s3)c2c1	13.3	> 25	1.53	8.27	3.78	5.54	> 18.3	> 25	> 17.3	0.221	0.448	0.105	0.012	0.281 µM	0.0105	0.0374	0.0197	0.869	0.0454 µM	0.0165
Cc1c(C2=C(Br)C(=O)N(C)C2=O)c(=O)n(C)c(=O)n1C	51.1	> 100	75.9	32.1	29	34.6	42.9	> 100	65.3	29.5										
C[C@]12CC[C@@H]3c4ccc(O)cc4CC[C@H]3[C@@H]1CC[C@@H]2NS(=O)(=O)c1cccc(F)c1	8.46	17.8	8.28	11.3	7.4	14.1	13.5	14.4	13.6	7.6	2.82	4.81	2.35	3.38 µM	2.42	3.91	3.19	2.72	3.64 µM	1.89
N=C(N)SCc1cccc(-c2nc3ccccc3c(=O)o2)c1	> 100	> 100	> 100	> 100	> 100	> 100	> 100	> 100	> 100	> 100										
O=C(Nc1ccc(-c2ccccc2)cc1)C1CCN(S(=O)(=O)c2ccccc2Cl)CC1	56.3	> 100	> 100	77.9	5	37.3	> 100	> 100	47.3	> 100	13.9	> 100	36.2	23.6 µM	2.09	12	76.2	22.3	18.2 µM	22.4
CC1CCC(=O)C(C(=O)CC2CC(=O)NC(=O)C2)C1 (configuration not stated)	> 100	> 100	> 100	> 100	> 100	> 100	> 100	> 100	> 100											
C=C1C(=O)O[C@H]2[C@H]1CC/C(COC(=O)c1ccc(Cl)nc1)=C\CC[C@@]1(C)O[C@@H]21	6.71	4.9	38.8	3.53	2.31	3.61	12.4	18.4	5.7	3.82	1.95	1.94	0.658	1.75 µM	1.04	1.61	3.08	4.49	2.4 µM	1.59
CCOC(=O)CNC(=O)c1ccccc1Nc1ccnc(C(F)(F)F)c1	> 100	> 83.3	57.8	> 90	> 64.4	> 100	> 71.8	> 100	> 73.1	> 70.5	42	28.1	19	52.6 µM	31.3	28	31.5	43.7	33.4 µM	27.8
COc1cc2ncn(-c3cc(OCCc4ccccc4)c(C(N)=O)s3)c2cc1OC	> 25	> 25	> 25	> 25	> 25	> 25	> 25	> 25	> 25	> 25	> 25	> 25	13.6	> 25 µM	9.53	> 25	> 25	> 25	24.6 µM	> 18.1
C=CCSS/C=C/CS(=O)CC=C (configuration not stated)	> 56.7	49.9	> 55.6	33.4	55.6	51.6	> 100	99.3	56.3	32.3										
CC(C)N=c1cc2n(-c3ccc(Cl)cc3)c3ccccc3nc-2cc1Nc1ccc(Cl)cc1	> 50	> 50	> 100	> 100	4.72	> 50		> 100	> 50		1.47	> 50	2.48	1.52 µM and 3.12 µM	0.921	> 50		1.29	0.618 µM and 1.07 µM	
Cc1cc(N/N=C/c2nc(-c3ccc(Br)cc3)oc2C)c2cc(Br)ccc2n1	23.3	6.26	> 100	3.42	19.8	3.5	22.8		10.1	5.62	10.7	2.39	0.355	1.7 µM	5	1.76	6.25		2.95 µM	2.21
Nc1nc(SN=Nc2ccc(S(N)(=O)=O)cc2)c2[nH]cnc2n1	> 100	> 52.5	> 100	> 100	5.52	> 100	> 100	> 51.1	> 100	43.1	1.15	2.29	0.186	0.407 µM	0.394	0.552	0.623	0.581	0.722 µM	1.08
CCc1ccccc1NC(=O)c1sc2nc3c(cc2c1N)C(=O)CCC3	> 100	> 100	> 100	> 74.2	0.852	3.15	> 100	> 100	> 100	> 100	27.4	3.71	0.406	0.722 µM	0.191	0.373	0.711	1.54	1.49 µM	0.502
COc1ccc(-c2c[nH]c(=S)n2-c2ccc(OC)cc2)cc1	> 50	> 50	> 50	> 50	> 50	> 50	> 50		> 50	> 50	> 50	> 50	> 50	> 50 µM	> 50	> 50	> 50		> 50 µM	> 50
CC(=O)O[C@H](C[C@H](C(C)C)N(C)C(=O)[C@@H](NC(=O)[C@H]1CCCCN1C)C(C)C)c1nc(C(=O)N[C@@H](Cc2ccccc2)C[C@H](C)C(=O)O)c(CCOCc2ccccc2)s1	0.00816	> 10	> 10	> 10		0.00174	> 10	> 10		< 0.001	< 0.001	0.797	< 0.001	< 0.001 µM		< 0.001	< 0.001	0.00242	< 0.001 µM	< 0.001
COc1ccc2c(c1)[C@@]13CCCC[C@H]1[C@@H](C2)N(C)CC3=O	31.4	30	42	32.8	29.1		31.8	33.3	36.4	32.9										
CCCCC1(CN2CCOCC2)S/C(=N/c2nc(CC(=O)OCC)cs2)NC1=O (configuration not stated)	> 100	> 100	65.9	> 100	86.1	89.9		> 100	74.2	> 100	41.8	38.4	26.2	37.9 µM	27.6	29		33	25.8 µM	32.1
COc1ccc(C(=O)COc2cccc(/C=C3\Oc4ccc5ccccc5c4C3=O)c2)cc1	10.3	28.7		6.73	1.77	26.3	16.8	17.5	25.6	3.29	2.45	15.3		2.22 µM	0.545	13.4	3.38	5.08	11.9 µM	1.46
COc1ccc(OC)c2c(/C=C/c3ccc(N(C)C)cc3)ccnc12	> 10	> 10		> 10	> 10	6.07	> 10	> 10	> 10	> 10										
COc1cc2c(cc1O)C1Cc3ccc(OC)c(O)c3C(C2)N1C (configuration not stated)	> 100	> 100		> 100	> 100	> 100	> 100	> 100	> 100	> 100										
Cc1cc(C2CC(O)C(CO)O2)cc2c(=O)[nH]c(N)nc12 (configuration not stated)	> 100	> 100		> 100	> 100	> 100	> 100	> 100	> 100	> 100	> 100	> 100		> 100 µM	> 100	> 100	> 100	> 100	> 100 µM	> 100
